US20090312414A1, “Treatment Of Lower Urinary Tract Dysfunction With CB2-Receptor-Selective Agonists” (priority 2008, published 2009)

Assays:
conscious normal rats = assay: Cystometry in normal conscious rats; type: in vivo, rat; details: for Residual volume (RV): ns
From the text: This study involved a determination of the acute effect of the compound of Formula I, a peripherally-selective, CB2-receptor-selective agonist, on normal bladder function in normal conscious freely moving rats using cystometry.
Female Sprague-Dawley rats, weighing 225-300 g, were maintained under standard laboratory conditions with a 12:12 light/dark cycle and free access to food pellets and water. After surgical procedures, rats were individually caged to prevent chewing of the catheters. For surgical procedures, the rats were anesthetized by intraperitoneal injection of 75 mg/kg ketamine (Ketalar®, Pfizer, Sweden) and 15 mg/kg xylazine (Rompun®, Bayer, Sweden).
The bladder was exposed via a mid-line incision of the lower abdomen. A saline-filled polyethylene catheter (PE-50, Clay-Adams, Parsippany, N.J.) with a cuff was inserted into the dome of the bladder and held in place with a purse string suture. The catheter was tunneled subcutaneously and anchored at the neck with a silk ligature, and the free end of the catheter was sealed.
In the same surgical session as for implantation of the bladder catheter, access to the femoral vein was given via the mid-line incision of the lower abdomen after careful blunt dissection of the subcutaneous fascias and the femoral vascular sheath. A stretched PE-50 catheter filled with heparinized saline was introduced into the femoral vein and forwarded with its tip in the iliac vein. The catheter was then secured in position by two ligatures, tunneled subcutaneously to the skin of the back and anchored as described above, and the free end of the catheter was sealed.
The appropriate solution of the compound of Formula I was prepared on the day of the experiment using phosphate-buffered saline (“PBS”) as the vehicle. The compound of Formula I was dissolved to obtain a 10 mg/ml stock solution. For the 3 mg/kg dose, each animal was administered individually weight-controlled amounts in a volume of approximately 100 μl IV of the stock solution. For lower doses, appropriate dilutions of the stock solution were made and animals were administered similar volumes containing 0.3 or 1 mg/kg. […] After administration of the compound of Formula I, 100 μl of heparinized saline was also infused to flush the IV catheter, and a 90 to 120-minute observation period was allowed until final stable micturitions were obtained. Each animal served as its own control.
Cystometry was performed without anesthesia three days after the implantation of bladder catheters in normal rats. The conscious rats were placed in metabolic cages without restraint and the bladder catheters were connected via a T-tube to a pressure transducer (P23 DC; Statham Instruments Inc., Oxnard, Calif.) and a microinjection pump (CMA 100; Carnegie Medicine AB, Solna, Sweden). Micturition volumes were recorded with a fluid collector connected to a force displacement transducer (FT 03 D, Grass Instrument Co., Quincy, Mass.). Room-temperature saline was infused into the bladder continuously at a rate of 10 ml/h. Pressures and micturition volumes were recorded continuously with Acq Knowledge 3.8.1 software and a MP100 data acquisition system (Biopac Syst. Inc. Santa Barbara, Calif.) connected to a Grass polygraph (Model 7E, Grass Instrument Co). At the beginning of cystometry, the bladder was emptied via the bladder catheter.
The following urodynamic parameters were investigated: micturition pressure (“MP;” maximum bladder pressure during micturition), threshold pressure (“ThP”; bladder pressure at start of detrusor contraction), flow pressure (“FP”; bladder pressure when urethra opens), micturition interval (“MI”; time between two micturitions), micturition volume (“MV”; volume of the expelled urine), and residual volume (“RV”; volume left in bladder after a micturition). […]

CB1 receptor = CB1 receptor (Homo sapiens, UniProt P21554); assay: biochemical; type: binding; details: displaces 50% of a radiolabeled agonist
Sequence of CB1 receptor (P21554 whole entry): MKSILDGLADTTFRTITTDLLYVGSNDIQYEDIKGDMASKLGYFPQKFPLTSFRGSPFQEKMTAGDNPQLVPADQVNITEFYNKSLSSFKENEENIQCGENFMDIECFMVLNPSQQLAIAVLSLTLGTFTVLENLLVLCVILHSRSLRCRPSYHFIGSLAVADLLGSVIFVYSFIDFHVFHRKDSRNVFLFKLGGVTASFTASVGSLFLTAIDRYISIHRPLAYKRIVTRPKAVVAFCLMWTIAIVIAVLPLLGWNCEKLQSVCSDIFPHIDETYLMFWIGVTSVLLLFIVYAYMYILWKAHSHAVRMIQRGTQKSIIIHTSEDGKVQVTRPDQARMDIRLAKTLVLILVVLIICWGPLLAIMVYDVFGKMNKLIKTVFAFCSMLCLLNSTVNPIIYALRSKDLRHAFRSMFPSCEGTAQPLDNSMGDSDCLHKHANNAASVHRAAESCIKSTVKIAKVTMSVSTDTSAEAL

## CCCCCCC(C)(C)c1cc(O)c([C@H]2CC(=O)[C@H]3C[C@@H]2C3(C)C)c(OC(=O)/C=C/C(=O)O)c1 [Formula I]
Conscious normal rats; 0.3 mg/kg IV
  Basal pressure (BP): 4.7±2.0 cmH2O
  Micturition pressure (MP): 64.3±12.3 cmH2O
  Rats responding with increased MI: 5 out of 8
  Rats responding with increased MV: 5 out of 8
  Rats responding with increased ThP: 5 out of 8
  Residual volume (RV): 0.01 ± 0.01 mL
Conscious normal rats; 0.3 mg/kg IV, not significant
  Bladder capacity (BC): 0.98 ± 0.21 mL
  Flow pressure (FP): 34.1±8.8 cmH2O
  Micturition interval (MI): 260 ± 69 s
  Micturition volume (MV): 0.93 ± 0.21 mL
  Threshold pressure (ThP): 16.5±2.2 cmH2O
Conscious normal rats; 1 mg/kg IV
  Basal pressure (BP): 3.7±1.2 cmH2O
  Micturition pressure (MP): 65.1±8.6 cmH2O
  Rats responding with increased MI: 3 out of 8
  Rats responding with increased MV: 6 out of 8
  Rats responding with increased ThP: 1 out of 8
  Residual volume (RV): 0.01 ± 0.01 mL
Conscious normal rats; 1 mg/kg IV, not significant
  Bladder capacity (BC): 0.91 ± 0.17 mL
  Flow pressure (FP): 26.0±2.4 cmH2O
  Micturition interval (MI): 251 ± 63 s
  Micturition volume (MV): 0.90 ± 0.17 mL
  Threshold pressure (ThP): 12.6±2.0 cmH2O
Conscious normal rats; 3 mg/kg IV
  Basal pressure (BP): 9.0±4.3 cmH2O
  Micturition pressure (MP): 87.3±18.9 cmH2O
  Rats responding with increased FP: 6 out of 8
  Rats responding with increased MI: 7 out of 8
  Rats responding with increased MV: 7 out of 8
  Rats responding with increased ThP: 7 out of 8
  Residual volume (RV): 0.02 ± 0.02 mL
Conscious normal rats; 3 mg/kg IV, ANOVA ns, paired t-test vs. baseline p=0.05
  Threshold pressure (ThP): 38.1±13.9 cmH2O
Conscious normal rats; 3 mg/kg IV, not significant
  Flow pressure (FP): 62.3±18.4 cmH2O
Conscious normal rats; 3 mg/kg IV, p<0.001 vs. baseline, p<0.005 vs. vehicle
  Bladder capacity (BC): 1.42 ± 0.18 mL
Conscious normal rats; 3 mg/kg IV, p<0.001 vs. baseline, p<0.01 vs. vehicle
  Micturition volume (MV): 1.4 ± 0.2 mL
Conscious normal rats; 3 mg/kg IV, p<0.02 vs. baseline
  Micturition interval (MI): 423 ± 63 s
Conscious normal rats; 0.3 and 1 mg/kg IV
  Animals responding with an increase or decrease in FP: 50%
Conscious normal rats; all doses (0.3, 1, 3 mg/kg IV)
  Animals with a decrease in BP: 37.5-50 % of rats
  Animals with an increase in BP: 25-37.5 % of rats
  Animals with no change in BP: 12.5-25 % of rats
  Rats responding with increased BC: 6 out of 8
CB1 receptor
  IC50: 660 nM
